According to the supplement of paper PMC11061612:

Columns and labels:
[1] = compound: C1CC(C1)(C(=O)[O-])C(=O)[O-].N.N.[Pt+2] [Carboplatin]; settings: max 10 µM
In short: (§1)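 Cancer cell lines were plated in 1536-well plates in 7.5 μl of DMEM/F12 or RPMI with 10% FBS and kept 24 hours at 37°C and 5% CO2 before 72 hours of dosing, with final DMSO typically 0.2%. CellTiter-Glo 2.0 luminescence measured viability, scaled between blank-well and DMSO-well means. Dose responses were fitted to a two-parameter logistic curve with a non-linear mixed effects model. This fit gives the single-agent IC50.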

[2] = compound: C1CN(CCC1(C(=O)N[C@@H](CCO)C2=CC=C(C=C2)Cl)N)C3=NC=NC4=C3C=CN4 [AZD5363]; settings: max 10 µM
In short: as §1

[3] = compound: C=CCn1c(=O)c2cnc(Nc3ccc(N4CCN(C)CC4)cc3)nc2n1-c1cccc(C(C)(C)O)n1 [AZD1775]; settings: max 3 µM
In short: as §1

[4] = compound: CC(=O)Nc1cccc(-n2c(=O)n(C3CC3)c(=O)c3c(Nc4ccc(I)cc4F)n(C)c(=O)c(C)c32)c1 [Trametinib]; settings: max 1 µM
In short: as §1

[5] = compound: CC(=O)O[C@H]1C(=O)[C@@]2(C)[C@H]([C@H](OC(=O)c3ccccc3)[C@]3(O)C[C@H](OC(=O)[C@H](O)[C@@H](NC(=O)c4ccccc4)c4ccccc4)C(C)=C1C3(C)C)[C@]1(OC(C)=O)CO[C@@H]1C[C@@H]2O [Paclitaxel]; settings: max 3 µM
In short: as §1

[6] = compound: CC(=O)c1c(C)c2cnc(Nc3ccc(N4CCNCC4)cn3)nc2n(C2CCCC2)c1=O [Palbociclib]; settings: max 10 µM
In short: as §1

[7] = compound: CC(C)n1c(=O)n(C)c2cnc3cc(F)c(-c4ccc(OCCCN5CCCCC5)nc4)cc3c21 [AZD1390]; settings: max 0.3 µM
In short: as §1

[8] = compound: CC1(C)CCC(CN2CCN(c3ccc(C(=O)NS(=O)(=O)c4ccc(NCC5CCOCC5)c([N+](=O)[O-])c4)c(Oc4cnc5[nH]ccc5c4)c3)CC2)=C(c2ccc(Cl)cc2)C1 [Venetoclax]; settings: max 1 µM
In short: as §1

[9] = compound: CC1=C(C(=CC=C1)Cl)NC(=O)C2=CN=C(S2)NC3=CC(=NC(=N3)C)N4CCN(CC4)CCO [Dasatinib]; settings: max 2 µM
In short: as §1

[10] = compound: CC1=CN2[C@@H](C1)C=NC3=CC(=C(C=C3C2=O)OC)OCCCCCOC4=C(C=C5C(=C4)N=C[C@@H]6CC(=CN6C5=O)C)OC [SG3199]; settings: max 0.001 µM
In short: as §1

[11] = compound: CCN(CCO)CCCOc1ccc2c(Nc3cc(CC(=O)Nc4cccc(F)c4)[nH]n3)ncnc2c1 [AZD2811]; settings: max 1 µM
In short: as §1

[12] = compound: CCc1c2c(nc3ccc(O)cc13)-c1cc3c(c(=O)n1C2)COC(=O)[C@]3(O)CC [SN-38]; settings: max 0.3 µM
In short: as §1

[13] = compound: CN(C)CCCOc1ccc(-c2ccc3ncc4c(c3c2)n(C2CCOCC2)c(=O)n4C)cn1 [AZD0156]; settings: max 3 µM
In short: as §1

[14] = compound: CN(CC[C@H](CSC1=CC=CC=C1)NC2=C(C=C(C=C2)S(=O)(=O)NC(=O)C3=CC=C(C=C3)N4CCC(CC4)[C@H](C5=CC=CC=C5C6=CC=C(C=C6)Cl)O)S(=O)(=O)C(F)(F)F)CCO [AZD4320]; settings: max 1 µM
In short: as §1

[15] = compound: COc1cc(Nc2ncc3c(n2)-c2ccc(Cl)cc2C(c2c(F)cccc2OC)=NC3)ccc1C(=O)O [Alisertib]; settings: max 10 µM
In short: as §1

[16] = compound: COc1cc([C@@H]2c3cc4c(cc3[C@@H](O[C@@H]3O[C@@H]5CO[C@@H](C)O[C@H]5[C@H](O)[C@H]3O)[C@H]3COC(=O)[C@H]23)OCO4)cc(OC)c1O [Etoposide]; settings: max 10 µM
In short: as §1

[17] = compound: COc1cc2ncnc(Nc3ccc(F)c(Cl)c3)c2cc1OCCCN1CCOCC1 [Gefitinib]; settings: max 10 µM
In short: as §1

[18] = compound: COc1cccc(OCCCN)c1-c1cc(Nc2cnc(C#N)cn2)n[nH]1 [Prexasertib]; settings: max 1 µM
In short: as §1

[19] = compound: COc1cccc2c1C(=O)c1c(O)c3c(c(O)c1C2=O)C[C@@](O)(C(=O)CO)C[C@@H]3O[C@H]1C[C@H](N)[C@H](O)[C@H](C)O1 [Doxorubicin]; settings: max 1 µM
In short: as §1

[20] = compound: COc1nnc2ccc(N3CCC(c4ccc(OCCN5CCN(C)C(=O)[C@H]5C)cc4)CC3)nn12 [AZD5153]; settings: max 1 µM
In short: as §1

[21] = compound: CS(=O)(=O)CCNCc1ccc(-c2ccc3ncnc(Nc4ccc(OCc5cccc(F)c5)c(Cl)c4)c3c2)o1 [Lapatinib]; settings: max 10 µM
In short: as §1

[22] = compound: C[C@@H](Nc1cc(F)cc(F)c1)c1cc(C(=O)N(C)C)cc2c(=O)cc(N3CCOCC3)oc12 [AZD8186]; settings: max 10 µM
In short: as §1

[23] = compound: C[C@@H](Oc1cc(-c2cnn(C3CCNCC3)c2)cnc1N)c1c(Cl)ccc(F)c1Cl [Crizotinib]; settings: max 10 µM
In short: as §1

[24] = compound: C[C@@H](c1ccc2nccn2c1)n1nnc2ncc(-c3cnn(C)c3)nc21 [Savolitinib]; settings: max 1 µM
In short: as §1

[25] = compound: C[C@@H]1COCCN1C2=NC(=NC(=C2)C3(CC3)[S@](=N)(=O)C)C4=C5C=CNC5=NC=C4 [AZD6738]; settings: max 10 µM
In short: as §1

[26] = compound: Cc1c2c(nn1C)CSCc1cc(n(C)n1)CSc1cc(c3ccccc3c1)OCCCc1c(C(=O)O)n(C)c3c-2c(Cl)ccc13 [AZD5991]; settings: max 1 µM
In short: as §1

[27] = compound: Cc1cc2ncnn2cc1Nc1ncc2c(n1)n(C1CCOCC1)c(=O)n2C [AZD7648]; settings: max 10 µM
In short: as §1

[28] = compound: Cc1nc(-c2cn3c(n2)-c2ccc(-c4cnn(C(C)(C)C(N)=O)c4)cc2OCC3)n(C(C)C)n1 [Taselisib]; settings: max 10 µM
In short: as §1

[29] = compound: Cn1cnc2c(F)c(Nc3ccc(Br)cc3Cl)c(C(=O)NOCCO)cc21 [Selumetinib]; settings: max 10 µM
In short: as §1

[30] = compound: N#Cc1cnc(Nc2cc(NC[C@H]3CNCCO3)c(C(F)(F)F)cn2)cn1 [SRA737]; settings: max 10 µM
In short: as §1

[31] = compound: NC1(c2ccc(-c3nc4ccn5c(=O)[nH]nc5c4cc3-c3ccccc3)cc2)CCC1 [MK-2206]; settings: max 10 µM
In short: as §1

[32] = compound: Nc1ccn([C@@H]2O[C@H](CO)[C@@H](O)C2(F)F)c(=O)n1 [Gemcitabine]; settings: max 0.3 µM
In short: as §1

[33] = compound: O=C(Nc1ccc2[nH]nc(-c3ccncc3)c2c1)[C@@H]1CCN(CC(=O)N2CCN(c3ccc(-c4ncccn4)cc3)CC2)C1; settings: max 5 µM
In short: as §1

[34] = compound: O=C(c1cc(Cc2n[nH]c(=O)c3ccccc23)ccc1F)N1CCN(C(=O)C2CC2)CC1 [Olaparib]; settings: max 10 µM
In short: as §1

[35] = compound: O=c1[nH]cc(F)c(=O)[nH]1 [5-Fluorouracil]; settings: max 20 µM
In short: as §1

| Cell Line | IC50, cell viability 72 h [1] [µM] | IC50, cell viability 72 h [2] [µM] | IC50, cell viability 72 h [3] [µM] | IC50, cell viability 72 h [4] [µM] | IC50, cell viability 72 h [5] [µM] | IC50, cell viability 72 h [6] [µM] | IC50, cell viability 72 h [7] [µM] | IC50, cell viability 72 h [8] [µM] | IC50, cell viability 72 h [9] [µM] | IC50, cell viability 72 h [10] [µM] | IC50, cell viability 72 h [11] [µM] | IC50, cell viability 72 h [12] [µM] | IC50, cell viability 72 h [13] [µM] | IC50, cell viability 72 h [14] [µM] | IC50, cell viability 72 h [15] [µM] | IC50, cell viability 72 h [16] [µM] | IC50, cell viability 72 h [17] [µM] | IC50, cell viability 72 h [18] [µM] | IC50, cell viability 72 h [19] [µM] | IC50, cell viability 72 h [20] [µM] | IC50, cell viability 72 h [21] [µM] | IC50, cell viability 72 h [22] [µM] | IC50, cell viability 72 h [23] [µM] | IC50, cell viability 72 h [24] [µM] | IC50, cell viability 72 h [25] [µM] | IC50, cell viability 72 h [26] [µM] | IC50, cell viability 72 h [27] [µM] | IC50, cell viability 72 h [28] [µM] | IC50, cell viability 72 h [29] [µM] | IC50, cell viability 72 h [30] [µM] | IC50, cell viability 72 h [31] [µM] | IC50, cell viability 72 h [32] [µM] | IC50, cell viability 72 h [33] [µM] | IC50, cell viability 72 h [34] [µM] | IC50, cell viability 72 h [35] [µM] |
| --- | --- | --- | --- | --- | --- | --- | --- | --- | --- | --- | --- | --- | --- | --- | --- | --- | --- | --- | --- | --- | --- | --- | --- | --- | --- | --- | --- | --- | --- | --- | --- | --- | --- | --- | --- |
| SJSA-1 (Osteosarcoma) | > 10 | > 10 | > 3 | > 1 | 0.0799 | > 10 | > 0.3 | > 1 | > 2 | > 0.001 | > 1 | 0.0879 | > 3 | > 1 | > 10 | > 10 | > 10 | 0.156 | > 1 | 0.533 | > 10 | > 10 | > 10 | > 1 | > 10 | > 1 | > 10 | 4.81 | > 10 | > 10 | > 10 | 0.0821 | > 5 | > 10 | > 20 |
| SK-GT-4 (Esophageal Adenocarcinoma) | > 10 | > 10 | > 3 | 0.0901 | 0.945 | > 10 | > 0.3 | > 1 | 1.5 | > 0.001 | > 1 | > 0.3 | > 3 | > 1 | > 10 | > 10 | > 10 | 0.0707 | > 1 | > 1 | > 10 | > 10 | > 10 | > 1 | > 10 | > 1 | > 10 | 0.911 | 6.05 | > 10 | > 10 | > 0.3 | 4.61 | > 10 | > 20 |
| ST486 (Burkitt's Lymphoma) | > 10 | > 10 | 0.32 | > 1 | 0.0085 | > 10 | > 0.3 | > 1 | 0.22 | > 0.001 | 0.0319 | 0.0809 | > 3 | 0.134 | 0.04 | 1.18 | > 10 | 0.00733 | 0.773 | 0.0649 | > 10 | > 10 | 0.739 | > 1 | 2 | 0.071 | > 10 | > 10 | 8.88 | 0.968 | > 10 | 0.0159 | 4.79 | > 10 | > 20 |
| T-T (Esophageal Squamous Cell Carcinoma) | > 10 | > 10 | 1.77 | > 1 | 0.0293 | > 10 | > 0.3 | > 1 | > 2 | > 0.001 | > 1 | 0.115 | > 3 | > 1 | > 10 | > 10 | > 10 | 0.35 | > 1 | > 1 | > 10 | > 10 | > 10 | > 1 | > 10 | 0.341 | > 10 | 2.98 | > 10 | > 10 | > 10 | > 0.3 | > 5 | > 10 | > 20 |
| VMRC-RCZ (Kidney Carcinoma) | > 10 | > 10 | > 3 | > 1 | > 3 | > 10 | > 0.3 | > 1 | > 2 | > 0.001 | > 1 | > 0.3 | > 3 | > 1 | > 10 | > 10 | > 10 | > 1 | > 1 | > 1 | > 10 | > 10 | > 10 | > 1 | > 10 | > 1 | > 10 | > 10 | > 10 | > 10 | > 10 | > 0.3 | > 5 | > 10 | > 20 |
